Values of other authors as cited in US20030232369A1, “Molecular structure of RNA polymerase II” (priority 2002, published 2003).

Key:
[1] = test system: pol II
[2] = test system: pol II; conditions: relative to α-amanitin

Molecule | effect on transcription [1] | influence of α-amanitin binding on the affinity of pol II for nucleoside triphosphates [1] | rate of translocation of pol II on DNA ([1]; after addition of α-amanitin to a transcribing pol II complex) | reduction of inhibition (fold less inhibitory than α-amanitin) [2]
CC[C@H](C)[C@@H]1NC(=O)CNC(=O)[C@@H]2Cc3c([nH]c4cc(O)ccc34)[S+]([O-])C[C@@H](NC(=O)CNC1=O)C(=O)N[C@@H](CC(N)=O)C(=O)N1C[C@H](O)C[C@H]1C(=O)N[C@@H]([C@@H](C)[C@@H](O)CO)C(=O)N2 (stereo in doubt) [α-amanitin] | blocks both transcription initiation and elongation | little if any influence | reduced from several thousand to only a few | –
CCC(C)C1NC(=O)CNC(=O)C2Cc3c([nH]c4cc(O)ccc34)[S+]([O-])CC(NC(=O)CNC1=O)C(=O)NC(CC(N)=O)C(=O)N1CC(O)CC1C(=O)NC(C(C)CC)C(=O)N2 (centres unmarked) [amanullin] | – | – | – | about 4 fold
proamanullin | – | – | – | about 20,000 fold
